What all share (test): NCI anticancer screen, dose series, 48 h
The test system of assay [1] is MALME-3M melanoma.
Assay [2] relates to HT29 colon.
The test system of assay [3] is RPMI-8226 leukemia.
Assay [4] relates to ACHN renal.
Assay [5] deals with KM12 colon.
In assay [6] the test system is M14 melanoma.
The test system of assay [7] is RXF 393 renal.
Assay [8] has as its system HCT-116 colon.
Assay [9] relates to SN12C renal.
The test system of assay [10] is T-47D breast.

Several values for one entry are separate records, joined by “and”; a condition that tells them apart may be missing. Equal entries are not always repeated.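 48-hour exposure; five concentrations; linearly interpolated endpoints. Here, GI50 denotes the concentration required for 50% inhibition of growth. TGI: concentration producing complete growth inhibition.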 Bounds are passed on as bounds.

In the case of `O=C(Nc1cccc(C(F)(F)F)c1)Oc1ccc(Cl)c2cccnc12`, the GI50 in assay [1] was 1180 nM; in [2], 3900 nM; in assay [3] it was 561 nM; in [4], 1230 nM; in assay [5], 3940 nM; in [6], 1490 nM. For the same compound, the GI50 in assay [7] was 1200 nM; in assay [8], 615 nM; in assay [9], 1850 nM; in assay [10] it was 1800 nM. The TGI was found to be 3.96 µM in assay [1]; 14.1 µM in assay [2]; 4.22 µM in assay [3]; 5.43 µM in [4]; 13.4 µM in assay [5]; 7.83 µM in assay [6]. For the same compound, the TGI in [7] was 5.49 µM; in assay [8] it was 8.03 µM; in [9], 7.89 µM; in assay [10], above 28.2 µM.
Take `C[C@@H]1CC[C@@]2(NC1)O[C@H]1C[C@H]3[C@@H]4CC[C@H]5C[C@@H](O)CC[C@]5(C)[C@H]4CC[C@]3(C)[C@H]1[C@@H]2C`: the TGI in [1] was above 100 µM; in [2], above 100 µM; in [3], 85.6 µM; in assay [4] it was 85.5 µM; in assay [5], 66.8 µM; in [6] it was above 100 µM. Further, the TGI in assay [7], in assay [8], in assay [9] and in [10] was above 100 µM in each case.
On to `COc1ccc(-c2cc(=O)c3c(O)c(OC)c(OC)c(OC)c3o2)cc1`, for which the TGI in assay [1] is above 100 µM; in assay [2], above 100 µM; in assay [3], above 100 µM; in assay [4], above 100 µM; in assay [5], 44.4 µM; in assay [6], above 100 µM. Besides, the TGI in assay [7] is 62.2 µM; in assay [8] it was above 100 µM; in [9], above 100 µM; in [10] it was above 100 µM.
As for `C=C(C)[C@@H]1CC[C@]2(C(=O)NS(=O)(=O)c3ccccc3)CC[C@]3(C)[C@H](CC[C@@H]4[C@@]5(C)CC[C@H](OC(=O)NS(=O)(=O)c6ccccc6)C(C)(C)[C@@H]5CC[C@]43C)[C@@H]12`, the GI50 in assay [1] was 2090 nM; in assay [2], 2030 nM; in [3] it was 1370 nM; in [4] it was 2730 nM; in assay [5], 1340 nM; in assay [6] it was 1990 nM. Besides, the GI50 in [7] is 1610 nM; in assay [8], 1470 nM; in assay [9] it was 2340 nM; in assay [10], 1740 nM. The TGI worked out at 5.32 µM in assay [1]; 11 µM in assay [2]; 6.18 µM in assay [3]; 9 µM in [4]; 2.96 µM in assay [5]; 6.89 µM in assay [6]. In addition, the TGI in assay [7] was found to be 3.26 µM; in [8], 3.56 µM; in assay [9], 15.7 µM; in assay [10], 7.37 µM.
In the case of `Cc1cc(O)c(-c2ccc([C@@H](C)CN(C)C)cc2)c2c1[nH]c(=O)c1sccc12`, the GI50 in [1] was 1530 nM; in assay [2] it was 2760 nM; in assay [3], 427 nM; in assay [4], 794 nM; in assay [5], 482 nM; in [6] it was 705 nM. Further, the GI50 in [7] is 167 nM; in assay [8], 406 nM; in assay [9] it was 627 nM; in assay [10], 309 nM. The TGI in assay [1] is 4.59 µM; in [2], 7.81 µM; in assay [3], 2.74 µM; in assay [4] it was 7.95 µM; in assay [5], 6.71 µM; in [6] it was 4.34 µM. Besides, the TGI was 0.53 µM in [7], 8.87 µM in [8], 20.7 µM in assay [9] and 5.19 µM in assay [10].
Regarding `CCn1c2ccccc2c2cc(C(=O)c3ccc(C)c4ccccc34)ccc21`, the GI50 in assay [1] was 500 nM; in assay [2], 263 nM; in assay [3], 389 nM; in assay [4], 729 nM; in [5] it was 362 nM; in [6], 276 nM. In addition, the GI50 in assay [7] is 350 nM; in assay [8], 344 nM; in [9] it was 2440 nM; in assay [10], 760 nM. In addition, the TGI in assay [1] is above 100 µM; in assay [2], 0.729 µM; in [3], above 100 µM; in assay [4], above 100 µM; in assay [5], 14.9 µM; in assay [6], 1.42 µM. For the same compound, the TGI in assay [7] is 2.71 µM; in [8], 14.5 µM; in assay [9] it was above 100 µM; in assay [10], above 100 µM.
Turning to `CS(=O)(=O)N(c1cc(-c2ccc3ncnc(Nc4ccc(F)c(Cl)c4)c3c2)cnc1Cl)S(C)(=O)=O`, the GI50 is 267 nM in assay [1]; 1070 nM in assay [2]; 826 nM in [3]; 1110 nM in assay [4]; 2430 nM in assay [5]; 1170 nM in assay [6]. Besides, the GI50 in assay [7] was 711 nM; in assay [8], 1680 nM; in assay [9] it was 964 nM; in assay [10] it was 130 nM. The TGI stood at 2.12 µM in assay [1]; 13.9 µM in assay [2]; 3.98 µM in assay [3]; 12.4 µM in assay [4]; 9.81 µM in assay [5]; 11.9 µM in [6]. The TGI in assay [7] was 3.4 µM; in assay [8], 6.7 µM; in assay [9], above 32.6 µM; in [10] it was 1.8 µM.
As to `Nc1cccc2c1C(=O)c1cccc(NC(=O)c3ccccc3)c1C2=O`, the GI50 in [1] is 242 nM; in assay [2], 291 nM; in assay [3], 462 nM; in assay [4], 590 nM; in [5] it was 374 nM; in [6], 400 nM. Also, the GI50 is 363 nM in assay [7], 401 nM in assay [8], 723 nM in [9] and 1100 nM in assay [10]. Moreover, the TGI in [1] is 7.09 µM; in [2], 2.67 µM; in assay [3] it was above 100 µM; in [4] it was above 100 µM; in assay [5], above 100 µM; in [6] it was 36.4 µM. In addition, the TGI in assay [7] was 2.95 µM; in assay [8] it was 5.17 µM; in [9], above 80.6 µM; in assay [10], above 100 µM.
On to `CNC(=O)c1ccccc1Nc1nc(Nc2ccc3c(c2OC)CCC[C@H](N2CCN(CCO)CC2)C3)ncc1Cl`, for which the GI50 is 875 nM and 1630 nM in assay [1]; 329 nM and 256 nM in [2]; 1800 nM and 2950 nM in assay [3]; 1160 nM and 1430 nM in assay [4]; 3040 nM and 3230 nM in assay [5]; 1020 nM and 510 nM in assay [6]. For the same compound, the GI50 in assay [7] is 1680 nM and 1980 nM; in assay [8], 1300 nM and 1050 nM; in assay [9] it was 2570 nM and 2590 nM; in assay [10], 2340 nM and 2950 nM. Besides, the TGI in assay [1] was 3.09 µM and > 10 µM; in assay [2], 10.5 µM and 1.27 µM; in [3], 7.08 µM and > 10 µM; in [4], 11.3 µM and > 10 µM; in assay [5] it was 11.2 µM and > 10 µM; in [6] it was 3.44 µM and 2.78 µM. Further, the TGI was 7.3 µM and > 10 µM in assay [7]; 4.24 µM and 3.95 µM in assay [8]; 13.3 µM and > 10 µM in [9]; 17.8 µM and > 10 µM in assay [10].
As to `C[N+](C)=c1ccc2nc3c(cc(NCCCNc4cc5oc6cc(=[N+](C)C)ccc-6nc5c5ccccc45)c4ccccc43)oc-2c1`, the GI50 in assay [1] is 2050 nM; in assay [2], 1810 nM; in assay [3] it was 1690 nM; in assay [4], 2170 nM; in assay [5] it was 2550 nM; in assay [6], 1630 nM. Besides, the GI50 in assay [7] is 6040 nM; in [8], 1950 nM; in [9] it was 2330 nM; in assay [10], 3120 nM. Further, the TGI in assay [1] stood at 4.45 µM; in assay [2] it was 6.29 µM; in assay [3], 13.1 µM; in assay [4] it was 11.3 µM; in assay [5], 8.81 µM; in assay [6] it was 3.18 µM. Also, the TGI was 37.5 µM in [7], 5.79 µM in assay [8], 7.39 µM in assay [9] and above 24.2 µM in assay [10].
For `COc1cc(CNc2oc(-c3ccccc3)c(-c3ccccc3)c2C#N)cc(CN2CCN(C)CC2)c1O`, the GI50 in assay [1] was 1850 nM; in assay [2], 1920 nM; in assay [3], 2230 nM; in assay [4] it was 1800 nM; in assay [5] it was 1900 nM; in assay [6], 1780 nM. Also, the GI50 is 1410 nM in assay [7], 1550 nM in assay [8], 3950 nM in assay [9] and 1910 nM in [10]. Besides, the TGI in [1] stood at 3.41 µM; in assay [2], 3.99 µM; in assay [3], 6.33 µM; in assay [4] it was 3.19 µM; in [5] it was 3.55 µM; in assay [6], 3.65 µM. Moreover, the TGI amounted to 2.95 µM in [7], 4.17 µM in assay [8], 15.3 µM in assay [9] and 4.17 µM in assay [10].
For the compound `COc1cc(NCCCCCN=C(N)NC(N)=NC(C)C)c2ncccc2c1`, the GI50 is 430 nM in assay [1]; 4440 nM in [2]; 1260 nM in [3]; 14800 nM in assay [4]; 1070 nM in [5]; 6120 nM in assay [6]. In addition, the GI50 in assay [7] is 6030 nM; in assay [8], 392 nM; in [9], 2320 nM; in assay [10], 302 nM. For the same compound, the TGI in assay [1] is 1.91 µM; in assay [2], above 42.3 µM; in [3] it was 20 µM; in assay [4], 31.2 µM; in assay [5], 3.28 µM; in assay [6], 20.1 µM. Also, the TGI was determined as 18.3 µM in [7], 10.5 µM in assay [8], 14.8 µM in assay [9] and 1.71 µM in [10].
Take `O=C1NC(c2ccccc2)C2(C(=O)O)CN(C3CC3)c3cc(N4CCNCC4)c(F)cc3C2N1` (stereo unspecified): the GI50 in [1], in [2], in [3], in assay [4], in [5] and in assay [7] was above 100000 nM in each case. The GI50 in assay [8], in assay [9] and in assay [10] was above 100000 nM each time. Besides, the TGI in assay [1], in assay [2], in assay [3], in assay [4], in assay [5] and in assay [7] was above 100 µM throughout. Besides, the TGI in assay [8], in [9] and in [10] was above 100 µM in each case.
As for `CC(C)(C)OC(=O)N[C@@H](Cc1ccccc1)C(=O)N(Cc1ccccc1)C1(C(=O)NCc2ccccc2)CCN(Cc2ccccc2)CC1`, the GI50 was 3020 nM in assay [1]; 2160 nM in [2]; 2180 nM in assay [3]; 4120 nM in [5]; 2600 nM in [6]; 3120 nM in assay [7]. Also, the GI50 in assay [8] was 2420 nM; in assay [9] it was 3450 nM; in assay [10], 2890 nM. For the same compound, the TGI in [2] is 6.82 µM; in [3] it was 6.98 µM; in [5], above 100 µM; in assay [6] it was 44.5 µM; in assay [7], above 100 µM; in assay [8], 10.1 µM. The TGI in assay [9] and in assay [10] was above 100 µM in each case.
In the case of `CCCCn1c(=O)c(/C=C/C(=O)/C=C/c2cc3ccccc3n(CCCC)c2=O)cc2ccccc21`, the GI50 in assay [1] was 2290 nM; in assay [2], 316 nM; in assay [3], 317 nM; in assay [4] it was 1700 nM; in assay [5] it was 678 nM; in [7], 1800 nM. Besides, the GI50 is 2210 nM in assay [9] and 2280 nM in assay [10]. Moreover, the TGI in assay [1] stood at 5.33 µM; in [2], 0.922 µM; in [3], 0.931 µM; in assay [4], 3.07 µM; in assay [5] it was 2.2 µM; in assay [7], 3.32 µM. Further, the TGI in [9] stood at 5.2 µM; in [10] it was 6.33 µM.

Values taken from PubChem BioAssay (NCI).
